Measurements reported in patent US20220409620A1, “REDUCING IMMUNOGENICITY TO PEGLOTICASE” (Horizon Pharma Rheumatology LLC, priority 2016, published 2022).

System: adult patients with uncontrolled gout
Experiment: Health Assessment Questionnaire (HAQ-DI, HAQ pain, HAQ health), open-label study
Assay type: in vivo, human
Design: key to HAQ-Health, Observed, Median / HAQ-Health, Change from Baseline, Median: 0-100 scale; 0 = very well, 100 = very poor health; key to HAQ-DI, Observed, Median / HAQ-DI, Change from Baseline, Median: HAQ-DI scale 0-3; 0 = no difficulty, 3 = unable to do
Details: mITT Population
Description: Quality-of-Life Assessment: The HAQ was administered at the Screening and Week −4 or week −6 (prior to the first dose of MTX) Visits during the MTX Run-in Period for the open-label and randomized studies, respectively; prior to pegloticase infusion at the Day 1 and Weeks 14, 24 and 36 Visits or at the Day 1 and weeks 6, 14, 20, 24, 30, 36, and 44 visits during the Pegloticase+IMM Period for the open-label and randomized studies, respectively; at the End of Pegloticase Infusions Visit (if applicable), the Week 52/End of Study/Early Termination Visit and the Post Treatment Periods 3 and 6 Month Follow-up Visits (open-label study). The HAQ-DI is a self-report functional status instrument that can be filled out by a subject in less than 5 minutes and requires 1 minute to score. The index measures disability over the past week by asking a total of 20 questions covering 8 domains of function: dressing and grooming, arising, eating, walking, hygiene, reach, grip, and usual activities. There are at least 2 questions in each domain and the 8 domains represent a comprehensive set of functional activities. The HAQ-DI is calculated by scoring the answer to each question in the HAQ from 0 to 3, with 0 representing the ability to do without any difficulty, and 3 representing inability to do. Any activity that requires assistance from another individual or requires the use of an assistive device raises a 0 or 1 score to a 2. The highest score for each of the 8 domains is summed (range from 0 to 24) and divided by 8 to yield, on a scale with 25 possible values, a Functional Disability Index with a range from 0 to 3. The disability index is based on the number of domains answered and is computed only if the subject completes answers to at least 6 domains. The HAQ pain scale asks subjects to record how much pain they have had in the past week on a scale of 0 to 100, where zero represents “no pain” and 100 represents “severe pain”. The HAQ health scale is a measure of overall health. Subjects are asked to rate how well they are doing on a score of 0 to 100, where zero represents “very well” and 100 represents “very poor” health.

[1] = Week 52/ET, Methotrexate Baseline
[2] = Week 52/ET, Pegloticase Baseline

**Q.** How did the “HAQ-Health, Observed, Mean (SD)” value (Week 14, Pegloticase Baseline) turn out when pegloticase was run?
**A.** The value was 36.6 (33.87).

**Q.** What about the “HAQ-Health, Observed, Median” value (Week 14, Pegloticase Baseline) of the same substance?
**A.** Its value is 16.5.

**Q.** And the “HAQ-Pain, Change from Baseline, Mean (SD)” value (from here on “HAQ-Pain, Change … (SD)”) (Week 14, Pegloticase Baseline)?
**A.** Its value is −16.0 (30.65).

**Q.** What about the “HAQ-Pain, Change from Baseline, Median” value (Week 14, Pegloticase Baseline) of the same substance?
**A.** The value was −12.5.

**Q.** And the “HAQ-Pain, Observed, Mean (SD)” value (Week 14, Pegloticase Baseline)?
**A.** Its value is 27.1 (26.25).

**Q.** What about the “HAQ-Pain, Observed, Median” value (Week 14, Pegloticase Baseline) of the same substance?
**A.** Its value is 15.0.

**Q.** And the “HAQ-DI, Change from Baseline, Mean (SD)” value (Week 24, Methotrexate Baseline)?
**A.** Its value is −0.5 (0.74).

**Q.** And the “HAQ-DI, Change from Baseline, Median” value (Week 24, Methotrexate Baseline)?
**A.** The value was −0.1.

**Q.** And the “HAQ-DI, Observed, Mean (SD)” value (Week 24, Methotrexate Baseline)?
**A.** The value was 0.2 (0.33).

**Q.** What about the “HAQ-DI, Observed, Median” value (Week 24, Methotrexate Baseline) of the same substance?
**A.** Its value is 0.1.

**Q.** What about the “HAQ-Health, Change from Baseline, Mean (SD)” value (“HAQ-Health, Change … (SD)” below) (Week 24, Methotrexate Baseline) of the same substance?
**A.** Its value is −33.2 (36.01).

**Q.** What about the “HAQ-Health, Change from Baseline, Median” value (Week 24, Methotrexate Baseline) of the same substance?
**A.** Its value is −40.0.

**Q.** And the “HAQ-Health, Observed, Mean (SD)” value (Week 24, Methotrexate Baseline)?
**A.** Its value is 21.4 (26.65).

**Q.** What about the “HAQ-Health, Observed, Median” value (Week 24, Methotrexate Baseline) of the same substance?
**A.** The value was 10.0.

**Q.** And the “HAQ-Pain, Change … (SD)” value (Week 24, Methotrexate Baseline)?
**A.** Its value is −19.2 (35.13).

**Q.** And the “HAQ-Pain, Change from Baseline, Median” value (Week 24, Methotrexate Baseline)?
**A.** The value was −10.0.

**Q.** What about the “HAQ-Pain, Observed, Mean (SD)” value (Week 24, Methotrexate Baseline) of the same substance?
**A.** The value was 25.4 (27.50).

**Q.** And the “HAQ-Pain, Observed, Median” value (Week 24, Methotrexate Baseline)?
**A.** The value was 20.0.

**Q.** And the “HAQ-DI, Change from Baseline, Mean (SD)” value (Week 24, Pegloticase Baseline)?
**A.** The value was −0.6 (0.85).

**Q.** And the “HAQ-DI, Change from Baseline, Median” value (Week 24, Pegloticase Baseline)?
**A.** The value was −0.1.

**Q.** And the “HAQ-DI, Observed, Mean (SD)” value (Week 24, Pegloticase Baseline)?
**A.** The value was 0.2 (0.33).

**Q.** And the “HAQ-DI, Observed, Median” value (Week 24, Pegloticase Baseline)?
**A.** Its value is 0.1.

**Q.** And the “HAQ-Health, Change … (SD)” value (Week 24, Pegloticase Baseline)?
**A.** Its value is −19.7 (43.38).

**Q.** What about the “HAQ-Health, Change from Baseline, Median” value (Week 24, Pegloticase Baseline) of the same substance?
**A.** The value was −10.0.

**Q.** What about the “HAQ-Health, Observed, Mean (SD)” value (Week 24, Pegloticase Baseline) of the same substance?
**A.** The value was 21.4 (26.65).

**Q.** What about the “HAQ-Health, Observed, Median” value (Week 24, Pegloticase Baseline) of the same substance?
**A.** Its value is 10.0.

**Q.** And the “HAQ-Pain, Change … (SD)” value (Week 24, Pegloticase Baseline)?
**A.** The value was −16.7 (38.53).

**Q.** And the “HAQ-Pain, Change from Baseline, Median” value (Week 24, Pegloticase Baseline)?
**A.** The value was −10.0.

**Q.** And the “HAQ-Pain, Observed, Mean (SD)” value (Week 24, Pegloticase Baseline)?
**A.** Its value is 25.4 (27.50).

**Q.** What about the “HAQ-Pain, Observed, Median” value (Week 24, Pegloticase Baseline) of the same substance?
**A.** Its value is 20.0.

**Q.** What about the “HAQ-DI, Change from Baseline, Mean (SD)” value (Week 36, Methotrexate Baseline) of the same substance?
**A.** Its value is −0.5 (0.80).

**Q.** And the “HAQ-DI, Change from Baseline, Median” value (Week 36, Methotrexate Baseline)?
**A.** The value was 0.0.

**Q.** And the “HAQ-DI, Observed, Mean (SD)” value (Week 36, Methotrexate Baseline)?
**A.** Its value is 0.3 (0.49).

**Q.** And the “HAQ-DI, Observed, Median” value (Week 36, Methotrexate Baseline)?
**A.** Its value is 0.1.

**Q.** What about the “HAQ-Health, Change … (SD)” value (Week 36, Methotrexate Baseline) of the same substance?
**A.** Its value is −27.7 (42.59).

**Q.** And the “HAQ-Health, Change from Baseline, Median” value (Week 36, Methotrexate Baseline)?
**A.** The value was −10.0.

**Q.** What about the “HAQ-Health, Observed, Mean (SD)” value (Week 36, Methotrexate Baseline) of the same substance?
**A.** The value was 27.3 (35.18).

**Q.** And the “HAQ-Health, Observed, Median” value (Week 36, Methotrexate Baseline)?
**A.** The value was 10.0.

**Q.** And the “HAQ-Pain, Change … (SD)” value (Week 36, Methotrexate Baseline)?
**A.** The value was −22.9 (28.41).

**Q.** What about the “HAQ-Pain, Change from Baseline, Median” value (Week 36, Methotrexate Baseline) of the same substance?
**A.** The value was −20.0.

**Q.** And the “HAQ-Pain, Observed, Mean (SD)” value (Week 36, Methotrexate Baseline)?
**A.** Its value is 21.0 (27.60).

**Q.** What about the “HAQ-Pain, Observed, Median” value (Week 36, Methotrexate Baseline) of the same substance?
**A.** Its value is 10.0.

**Q.** And the “HAQ-DI, Change from Baseline, Mean (SD)” value (Week 36, Pegloticase Baseline)?
**A.** Its value is −0.5 (0.86).

**Q.** And the “HAQ-DI, Change from Baseline, Median” value (Week 36, Pegloticase Baseline)?
**A.** The value was −0.1.

**Q.** What about the “HAQ-DI, Observed, Mean (SD)” value (Week 36, Pegloticase Baseline) of the same substance?
**A.** Its value is 0.3 (0.49).

**Q.** What about the “HAQ-DI, Observed, Median” value (Week 36, Pegloticase Baseline) of the same substance?
**A.** Its value is 0.1.

**Q.** What about the “HAQ-Health, Change … (SD)” value (Week 36, Pegloticase Baseline) of the same substance?
**A.** The value was −16.2 (50.72).

**Q.** And the “HAQ-Health, Change from Baseline, Median” value (Week 36, Pegloticase Baseline)?
**A.** Its value is −10.0.

**Q.** What about the “HAQ-Health, Observed, Mean (SD)” value (Week 36, Pegloticase Baseline) of the same substance?
**A.** The value was 27.3 (35.18).

**Q.** What about the “HAQ-Health, Observed, Median” value (Week 36, Pegloticase Baseline) of the same substance?
**A.** The value was 10.0.

**Q.** And the “HAQ-Pain, Change … (SD)” value (Week 36, Pegloticase Baseline)?
**A.** Its value is −19.9 (20.25).

**Q.** What about the “HAQ-Pain, Change from Baseline, Median” value (Week 36, Pegloticase Baseline) of the same substance?
**A.** Its value is −20.0.

**Q.** What about the “HAQ-Pain, Observed, Mean (SD)” value (Week 36, Pegloticase Baseline) of the same substance?
**A.** The value was 21.0 (27.60).

**Q.** What about the “HAQ-Pain, Observed, Median” value (Week 36, Pegloticase Baseline) of the same substance?
**A.** The value was 10.0.

**Q.** What about the “HAQ-DI, Change from Baseline, Mean (SD)” value [1] of the same substance?
**A.** Its value is −0.6 (0.87).

**Q.** What about the “HAQ-DI, Change from Baseline, Median” value [1] of the same substance?
**A.** The value was −0.1.

**Q.** And the “HAQ-DI, Observed, Mean (SD)” value [1]?
**A.** The value was 0.4 (0.29).

**Q.** And the “HAQ-DI, Observed, Median” value [1]?
**A.** The value was 0.3.

**Q.** What about the “HAQ-Health, Change … (SD)” value [1] of the same substance?
**A.** The value was −16.7 (59.23).

**Q.** What about the “HAQ-Health, Change from Baseline, Median” value [1] of the same substance?
**A.** The value was 15.0.

**Q.** And the “HAQ-Health, Observed, Mean (SD)” value [1]?
**A.** Its value is 60.0 (48.22).

**Q.** What about the “HAQ-Health, Observed, Median” value [1] of the same substance?
**A.** The value was 80.0.

**Q.** And the “HAQ-Pain, Change … (SD)” value [1]?
**A.** Its value is −42.7 (18.04).

**Q.** What about the “HAQ-Pain, Change from Baseline, Median” value [1] of the same substance?
**A.** Its value is −44.0.

**Q.** What about the “HAQ-Pain, Observed, Mean (SD)” value [1] of the same substance?
**A.** Its value is 4.0 (5.20).

**Q.** And the “HAQ-Pain, Observed, Median” value [1]?
**A.** The value was 1.0.

**Q.** And the “HAQ-DI, Change from Baseline, Mean (SD)” value [2]?
**A.** Its value is −0.8 (1.08).

**Q.** And the “HAQ-DI, Change from Baseline, Median” value [2]?
**A.** Its value is −0.1.

**Q.** What about the “HAQ-DI, Observed, Mean (SD)” value [2] of the same substance?
**A.** Its value is 0.4 (0.29).

**Q.** And the “HAQ-DI, Observed, Median” value [2]?
**A.** Its value is 0.3.

**Q.** What about the “HAQ-Health, Change … (SD)” value [2] of the same substance?
**A.** Its value is 23.3 (54.85).

**Q.** What about the “HAQ-Health, Change from Baseline, Median” value [2] of the same substance?
**A.** The value was 5.0.

**Q.** And the “HAQ-Health, Observed, Mean (SD)” value [2]?
**A.** Its value is 60.0 (48.22).

**Q.** What about the “HAQ-Health, Observed, Median” value [2] of the same substance?
**A.** Its value is 80.0.

**Q.** And the “HAQ-Pain, Change … (SD)” value [2]?
**A.** The value was −41.0 (25.24).

**Q.** What about the “HAQ-Pain, Change from Baseline, Median” value [2] of the same substance?
**A.** Its value is −29.0.

**Q.** And the “HAQ-Pain, Observed, Mean (SD)” value [2]?
**A.** The value was 4.0 (5.20).

**Q.** And the “HAQ-Pain, Observed, Median” value [2]?
**A.** The value was 1.0.
